Test results: patent US8575091B1, “Amylin analogues and pharmaceutical compositions thereof” (Novo Nordisk A/S, priority 2012, dated 2013)
Like-named read-outs stand apart in the source and are kept apart here. Numbered stars: 1 amine (or outer) side, 2 acyl side, 3 side chain; on linkers, the order of the positions; unused ones are H or OH. Bridge positions count the residues as written; N and C are the ends. Side chains are listed from the residue outwards. Peptide text beside a SMILES is read from it. * marks the point of attachment. C20 diacid = O=C(O)CCCCCCCCCCCCCCCCCCC(=O)*; γGlu = O=C(O)[C@H](CCC(=O)[*:2])N[*:1]; AEEA = NCCOCCOCC(=O)O

Assays:
[1] = target: T1, human amylin receptor (amylin 3(a) receptor: human calcitonin receptor + RAMP-3) (Homo sapiens, UniProt O60896+P30988); assay: Assay (II)a functional assay, human amylin receptor (CRE luciferase, BHK cells); assay type: cell-based; details: for EC50: read-out: hAmylin-R funct. EC50
T1 construct: expressed in transfected cells
T1 sequence (P30988 25-474): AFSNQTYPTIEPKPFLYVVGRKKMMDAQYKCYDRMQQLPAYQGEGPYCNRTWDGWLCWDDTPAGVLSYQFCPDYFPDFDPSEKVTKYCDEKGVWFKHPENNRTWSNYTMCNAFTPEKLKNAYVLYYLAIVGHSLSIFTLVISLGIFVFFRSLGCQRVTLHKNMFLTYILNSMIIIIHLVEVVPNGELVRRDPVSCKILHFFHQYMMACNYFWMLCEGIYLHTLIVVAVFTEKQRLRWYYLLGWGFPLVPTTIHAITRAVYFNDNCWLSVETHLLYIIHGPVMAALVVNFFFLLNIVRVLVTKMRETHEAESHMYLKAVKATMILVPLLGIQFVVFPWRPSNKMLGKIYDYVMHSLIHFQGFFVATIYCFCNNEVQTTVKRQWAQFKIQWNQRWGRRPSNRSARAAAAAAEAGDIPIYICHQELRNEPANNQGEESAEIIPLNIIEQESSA
T1 sequence (O60896 24-148 partner): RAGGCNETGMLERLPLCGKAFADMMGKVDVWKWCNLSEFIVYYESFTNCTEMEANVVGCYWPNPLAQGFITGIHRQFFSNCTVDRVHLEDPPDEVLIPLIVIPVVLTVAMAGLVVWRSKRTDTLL

[2] = target: T2, human calcitonin receptor (Homo sapiens, UniProt P30988); assay: Assay (II)a functional assay, human calcitonin receptor (CRE luciferase, BHK cells);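 also: luminescence from a CRE-driven luciferase reporter, read by single photon counting after cells were exposed to test samples for 3 h at 37 °C under 5% CO2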; assay type: cell-based; details: read-out: hCTR funct. EC50
T2 construct: expressed in transfected cells
T2 sequence (P30988 25-474): T1 sequence (P30988 25-474)

[3] = target: T3, human amylin receptor (Homo sapiens, UniProt O60896+P30988); assay: Assay (V) binding to the human amylin receptor (SPA, 125I-rat amylin); details: for IC50: human amylin receptor membranes, SPA, read-out: hAmylin-R bind IC50
T3 construct: expressed in transfected cells
T3 sequence (P30988 25-474): T1 sequence (P30988 25-474)
T3 sequence (O60896 24-148 partner): T1 sequence (O60896 24-148 partner)
Procedure, shortened: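 IC50, taken as receptor affinity, came from one-site binding competition analysis of scintillation proximity counts. Amylin 3(a)/CRE-luc cell membranes (35 ng/μL final) were mixed with SPA beads (0.05 mg/well) in 50 mM Hepes pH 7.4 containing CaCl2, MgCl2, 0.1% OA and 0.02% Tween20.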

[4] = target: T2, human calcitonin receptor; assay: Assay (VII) binding to the human calcitonin receptor (SPA, 125I-Calcitonin); details: read-out: hCTR bind IC50;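 also: cell membranes coupled to SPA beads, competitive displacement read by scintillation counting, IC50 derived from a one-site competition fit as a measure of receptor affinity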
[5] = Table 6, human functional selectivity (hCTR EC50 / hAmylin-R EC50)
[6] = Table 6a, human functional selectivity (hCTR EC50 / hAmylin-R EC50), at least 5
[7] = functional assay, human amylin receptor

Ratio hCT/hAmylin funct. [1, 5] | Ratio hCT/hAmylin funct. [1, 6] | Ratio hCT/hAmylin funct. ([1]; Table 6i, hCTR funct. EC50 / hAmylin-R funct. EC50) | EC50 [1, 7] [nM] | Ratio hCT/hAmylin funct. ([1]; hCTR funct. EC50 divided by hAmylin-R funct. EC50) | EC50 [2] [nM] | IC50 [3] [nM] | IC50 [4] [nM] | Ratio hCT/hAmylin binding ([3]; Table 7b, human calcitonin receptor binding IC50 divided by human amylin receptor binding IC50) | Ratio hCT/hAmylin binding ([3]; Table 7c, human calcitonin receptor binding IC50 divided by human amylin receptor binding IC50) | Ratio hCT/hAmylin binding ([3]; human binding ratio, included for comparison) | Ratio hCT/hAmylin funct. ([1]; Table 6j, hCTR funct. EC50 / hAmylin-R funct. EC50) | EC50 ([1]; Table 6j, human amylin receptor functional) [nM] | Ratio hCT/hAmylin funct. ([1]; Table 6k, hCTR funct. EC50 / hAmylin-R funct. EC50) | SMILES
5.8 | 5.8 | 5.8 | 0.222 | 5.8 | 1.28 | 0.069 | 1.56 | – | – | – | – | – | – | CC[C@H](C)[C@H](NC(=O)[C@H](C)NC(=O)CNC(=O)[C@H](Cc1ccccc1)NC(=O)[C@H](CC(N)=O)NC(=O)[C@@H]1CCCN1C(=O)[C@H](CO)NC(=O)[C@H](CO)NC(=O)[C@H](Cc1c[nH]cn1)NC(=O)[C@H](CCCNC(=N)N)NC(=O)[C@H](CC(C)C)NC(=O)[C@H](Cc1ccccc1)NC(=O)[C@H](CCC(=O)O)NC(=O)[C@H](C)NC(=O)[C@H](CC(C)C)NC(=O)[C@H](CCCNC(=N)N)NC(=O)[C@H](CCC(N)=O)NC(=O)[C@@H](NC(=O)[C@H](C)NC(=O)[C@@H]1CSSC[C@H](NC(=O)[C@@H](N)CCCCNC(=O)CC[C@H](NC(=O)CC[C@H](NC(=O)CCCCCCCCCCCCCCCCCCC(=O)O)C(=O)O)C(=O)O)C(=O)N[C@@H](CC(N)=O)C(=O)N[C@@H]([C@@H](C)O)C(=O)N[C@@H](C)C(=O)N[C@@H]([C@@H](C)O)C(=O)N1)[C@@H](C)O)C(=O)N[C@@H](CC(C)C)C(=O)N[C@@H](CO)C(=O)N[C@@H](CO)C(=O)N[C@H](C(=O)N1CCC[C@H]1C(=O)N[C@H](C(=O)NCC(=O)N1CCC[C@H]1C(=O)N[C@@H](CCC(=O)O)C(=O)N[C@H](C(=O)N[C@@H](Cc1ccc(O)cc1)C(N)=O)[C@@H](C)O)C(C)C)[C@@H](C)O [Example 121] (H-K([γGlu-γGlu-C20 diacid])CNTATCATQRLAEFLRHSSPNFGAILSSTPVGPETY-NH2; disulfide 2-7)
– | – | – | 0.162 | – | 7.28 | 0.453 | 127 | 280.0 | 280.0 | 280.0 | – | – | – | CC[C@H](C)[C@H](NC(=O)[C@H](C)NC(=O)CNC(=O)[C@H](Cc1ccccc1)NC(=O)[C@H](CC(N)=O)NC(=O)[C@@H]1CCCN1C(=O)[C@H](CO)NC(=O)[C@H](CO)NC(=O)[C@H](Cc1c[nH]cn1)NC(=O)[C@H](CCCNC(=N)N)NC(=O)[C@H](CC(C)C)NC(=O)[C@H](Cc1ccccc1)NC(=O)[C@H](CC(=O)O)NC(=O)[C@H](C)NC(=O)[C@H](CC(C)C)NC(=O)[C@H](CCCNC(=N)N)NC(=O)[C@H](CCC(N)=O)NC(=O)[C@@H](NC(=O)[C@H](C)NC(=O)[C@@H]1CSSC[C@H](NC(=O)[C@@H](N)CCCCNC(=O)CC[C@H](NC(=O)CC[C@H](NC(=O)CCCCCCCCCCCCCCCCCCC(=O)O)C(=O)O)C(=O)O)C(=O)N[C@@H](CC(N)=O)C(=O)N[C@@H]([C@@H](C)O)C(=O)N[C@@H](C)C(=O)N[C@@H]([C@@H](C)O)C(=O)N1)[C@@H](C)O)C(=O)N1CCC[C@H]1C(=O)N[C@@H](CO)C(=O)N[C@@H](CO)C(=O)N[C@H](C(=O)N[C@@H](CC(N)=O)C(=O)N[C@H](C(=O)NCC(=O)N1CCC[C@H]1C(=O)N[C@@H](CCCNC(=N)N)C(=O)N[C@H](C(=O)N[C@@H](Cc1ccc(O)cc1)C(N)=O)[C@@H](C)O)C(C)C)[C@@H](C)O [Example 130] (H-K([γGlu-γGlu-C20 diacid])CNTATCATQRLADFLRHSSPNFGAIPSSTNVGPRTY-NH2; disulfide 2-7)
– | – | – | 0.133 | – | 3 | 0.837 | 34.5 | – | – | – | – | – | – | CC[C@H](C)[C@H](NC(=O)[C@H](C)NC(=O)CNC(=O)[C@H](Cc1ccccc1)NC(=O)[C@H](CC(N)=O)NC(=O)[C@@H]1CCCN1C(=O)[C@H](CO)NC(=O)[C@H](CO)NC(=O)[C@H](Cc1c[nH]cn1)NC(=O)[C@H](CCCNC(=N)N)NC(=O)[C@H](CC(C)C)NC(=O)[C@H](Cc1ccccc1)NC(=O)[C@H](CC(N)=O)NC(=O)[C@H](C)NC(=O)[C@H](CC(C)C)NC(=O)[C@H](CCCNC(=N)N)NC(=O)[C@H](CCC(N)=O)NC(=O)[C@@H](NC(=O)[C@H](C)NC(=O)[C@@H]1CSSC[C@H](NC(=O)[C@@H](N)CCCCNC(=O)CC[C@H](NC(=O)CCCCCCCCCCCCCCCCCCC(=O)O)C(=O)O)C(=O)N[C@@H](CC(N)=O)C(=O)N[C@@H]([C@@H](C)O)C(=O)N[C@@H](C)C(=O)N[C@@H]([C@@H](C)O)C(=O)N1)[C@@H](C)O)C(=O)N1CCC[C@H]1C(=O)N[C@@H](CO)C(=O)N[C@@H](CO)C(=O)N[C@H](C(=O)N[C@@H](CC(N)=O)C(=O)N[C@H](C(=O)NCC(=O)N[C@@H](CO)C(=O)N[C@@H](CCC(=O)O)C(=O)N[C@H](C(=O)N[C@@H](Cc1ccc(O)cc1)C(N)=O)[C@@H](C)O)C(C)C)[C@@H](C)O [Example 27]
– | – | – | 0.425 | – | 5.58 | 0.992 | 26.1 | – | – | – | – | – | – | CC[C@H](C)[C@H](NC(=O)[C@H](C)NC(=O)CNC(=O)[C@H](Cc1ccccc1)NC(=O)[C@H](CC(N)=O)NC(=O)[C@@H]1CCCN1C(=O)[C@H](CO)NC(=O)[C@H](CO)NC(=O)[C@H](Cc1c[nH]cn1)NC(=O)[C@H](CCCNC(=N)N)NC(=O)[C@H](CC(C)C)NC(=O)[C@H](Cc1ccccc1)NC(=O)[C@H](CCC(=O)O)NC(=O)[C@H](C)NC(=O)[C@H](CC(C)C)NC(=O)[C@H](CCCNC(=N)N)NC(=O)[C@H](CCC(N)=O)NC(=O)[C@@H](NC(=O)[C@H](C)NC(=O)[C@@H]1CSSC[C@H](NC(=O)[C@@H](N)CCCCNC(=O)CC[C@H](NC(=O)CCCCCCCCCCCCCCCCCCC(=O)O)C(=O)O)C(=O)N[C@@H](CC(N)=O)C(=O)N[C@@H]([C@@H](C)O)C(=O)N[C@@H](C)C(=O)N[C@@H]([C@@H](C)O)C(=O)N1)[C@@H](C)O)C(=O)N1CCC[C@H]1C(=O)N[C@@H](CO)C(=O)N[C@@H](CO)C(=O)N[C@H](C(=O)N[C@@H](CC(N)=O)C(=O)N[C@H](C(=O)NCC(=O)N[C@@H](CO)C(=O)N[C@@H](Cc1c[nH]cn1)C(=O)N[C@H](C(=O)N[C@@H](Cc1ccc(O)cc1)C(N)=O)[C@@H](C)O)C(C)C)[C@@H](C)O [Example 128] (H-K([γGlu-C20 diacid])CNTATCATQRLAEFLRHSSPNFGAIPSSTNVGSHTY-NH2; disulfide 2-7)
5.0 | 5.0 | – | – | – | 0.506 | 0.049 | 2.09 | – | – | – | 5.0 | 0.102 | 5.0 | CC[C@H](C)[C@H](NC(=O)[C@H](C)NC(=O)CNC(=O)[C@H](Cc1ccccc1)NC(=O)[C@H](CC(N)=O)NC(=O)[C@@H]1CCCN1C(=O)[C@H](CO)NC(=O)[C@H](CO)NC(=O)[C@H](Cc1c[nH]cn1)NC(=O)[C@H](CCCNC(=N)N)NC(=O)[C@H](CC(C)C)NC(=O)[C@H](Cc1ccccc1)NC(=O)[C@H](CC(N)=O)NC(=O)[C@H](C)NC(=O)[C@H](CC(C)C)NC(=O)[C@H](CCCNC(=N)N)NC(=O)[C@H](CCC(N)=O)NC(=O)[C@@H](NC(=O)[C@H](C)NC(=O)[C@@H]1CSSC[C@H](NC(=O)[C@@H](N)CCCCNC(=O)COCCOCCNC(=O)CC[C@H](NC(=O)CCCCCCCCCCCCCCCCCCC(=O)O)C(=O)O)C(=O)N[C@@H](CC(N)=O)C(=O)N[C@@H]([C@@H](C)O)C(=O)N[C@@H](C)C(=O)N[C@@H]([C@@H](C)O)C(=O)N1)[C@@H](C)O)C(=O)N1CCC[C@H]1C(=O)N[C@@H](CO)C(=O)N1CCC[C@H]1C(=O)N[C@H](C(=O)N[C@@H](CC(N)=O)C(=O)N[C@H](C(=O)NCC(=O)N1CCC[C@H]1C(=O)N[C@@H](CC(N)=O)C(=O)N[C@H](C(=O)N[C@@H](Cc1ccc(O)cc1)C(N)=O)[C@@H](C)O)C(C)C)[C@@H](C)O [Example 56] (H-K([AEEA-γGlu-C20 diacid])CNTATCATQRLANFLRHSSPNFGAIPSPTNVGPNTY-NH2; disulfide 2-7)
